Data: paper PMC12207533, “Structure-guided design of a methyltransferase-like 3 (METTL3) proteolysis targeting chimera (PROTAC) incorporating an indole–nicotinamide chemotype” (RSC Medicinal Chemistry, 2025)

Biological target: T1, METTL3 (Homo sapiens, UniProt Q86U44)
T1 construct: endogenous in cells; host or cells: MOLM-13
Assay: Immunoblotting of METTL3 protein levels in MOLM-13 cells
Assay type: cell-based
Settings: MOLM-13, 0.1-10 μM, 16 h
Procedure: MOLM-13 were seeded in 12-well cell culture plates at a density of 1 × 10^6 cells per mL and treated with DMSO (final: 0.1%) or different concentrations of PROTAC degraders in DMSO at the indicated times. Treatments were conducted in biological triplicate with varying passages of MOLM-13 cells. The cells were harvested by centrifugation at 500g for 5 min and washed with PBS. The cells were lysed with RIPA lysis buffer with the addition of protease inhibitor (1× cOMPLETE), and insoluble cellular parts were separated by centrifugation (12 000g for 10 min), subsequently, the supernatant was boiled with 1× Laemmli sample buffer (Carl Roth) for 5 min at 95 °C. Proteins were separated by SDS–PAGE on 4–20% Criterion™ TGX™ Precast Protein Gels (Bio-Rad) and transferred to Amersham™ Protean® 0.45 μm nitrocellulose membrane (Cytiva) using semi-dry transfer (25 V, 1 A, Towbin buffer). The membrane was blocked with 5% milk (Carl Roth) in TBST buffer and incubated with the following primary antibodies: Anti-METTL3 (1 : 1000, Abcam, ab195352), anti-METTL14 (1 : 1000, Abcam, ab220030), anti-Bcl2 (1 : 1000, Cell Signaling Technology [CST], EPR16891), anti-Mcl-1 (1 : 1000, CST, 5453 T), anti-Bcl-XL (1 : 1000, CST, 2764 T), anti-vinculin (1 : 1000, CST, 13901) or anti-GAPDH (1 : 5000, CST, D17C4) overnight at 4 °C. Subsequently, the membrane was incubated for 1 h at RT with secondary antibodies: anti-rabbit (1 : 2000, VWR, NA934) or anti-mouse (1 : 2000, VWR, 102646-160). The protein bands were detected via chemiluminescence using Pierce™ ECL western blotting substrate and a Fusion FX imaging system (Vilber). The ImageLab software (Bio-Rad) was used for band quantification.

T1 sequence (Q86U44 whole entry): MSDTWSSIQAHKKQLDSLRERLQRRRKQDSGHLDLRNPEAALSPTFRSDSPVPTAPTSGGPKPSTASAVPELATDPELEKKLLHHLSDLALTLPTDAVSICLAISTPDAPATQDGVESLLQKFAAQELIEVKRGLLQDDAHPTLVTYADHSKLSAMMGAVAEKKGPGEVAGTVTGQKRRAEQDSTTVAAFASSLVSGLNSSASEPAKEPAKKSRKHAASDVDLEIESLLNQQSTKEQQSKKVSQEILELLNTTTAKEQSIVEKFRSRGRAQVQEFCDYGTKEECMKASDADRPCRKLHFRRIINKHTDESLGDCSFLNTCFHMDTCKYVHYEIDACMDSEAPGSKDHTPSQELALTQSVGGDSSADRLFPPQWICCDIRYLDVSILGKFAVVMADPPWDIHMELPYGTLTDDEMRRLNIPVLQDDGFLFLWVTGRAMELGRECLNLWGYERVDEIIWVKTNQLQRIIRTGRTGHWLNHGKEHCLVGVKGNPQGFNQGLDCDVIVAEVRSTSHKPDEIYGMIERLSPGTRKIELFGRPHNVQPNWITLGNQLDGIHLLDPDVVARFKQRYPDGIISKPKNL

| METTL3 degradation (Western blot screening) | SMILES |
| --- | --- |
| do not func?on as METTL3 degraders | CC1(C)CCN(Cc2ccc3nc(Cn4cc(-c5cc(Br)cc6[nH]ncc56)nn4)cn3c2)CC1 [STM3006, reference compound] |
| do not func?on as METTL3 degraders | COc1cc2c(cc1Cc1cccc(Cl)c1F)c(=O)c(C(=O)O)cn2[C@H](CO)C(C)C [Elvitegravir, reference compound] |
